We go through ten compounds from patent publication US7071206B2, “Agents for treating neurodegenerative disorders” (Medivation, Inc., priority 1995, dated 2006).

Each structure is given as a SMILES string.

Data set [1] concerns NMDA receptor. Kind of data set: Anti-NMDA activity: prevention of convulsions and death caused by NMDA injected into the lateral ventricle of the brain. The following applies: mice, i.p. 40 minutes before NMDA 0.1 μg into the lateral ventricle, probit analysis. It is filed as in vivo. On the procedure:
The experiment was conducted in white non-inbred male mice of 20–24 g of weight. A solution of the test agent in 0.2 ml of 5% aqueous dimethylsulfoxide was injected intraperitoneally 40 minutes before the injection of NMDA into the lateral vehicle of the brain. For the mice that had been prepared beforehand for the experiment a skin flap on the head of each mouse was removed under ether anestesia and a hole was bored in the skull by a fine drill. NMDA (0.1 μg) in a volume of 1.4 μl was injected with a microsyringe. The microsyringe needle was immersed to a depth of 2.5 mm. After the operation, the wound was treated with a 2% novocaine solution. […] The accuracy of NMDA injection was monitored by injection of methylene blue. Two to 4 hours after the operation, the mice were used for a pharmacological experiment.
The animals inoculated with a saline solution were used as control.
Each dose of the agent was tested in a croup of 6–8 animals. The ED50 value (the dose of the agent preventing the development of convulsions and the death of 50% of the animals) was determined by a probit-analysis method (Litchfild J. T., Wicoxon F. J.—Pharmacol. Exp. Therap., 1949, v. 96, p. 99–114).

Data set [2] deals with NMDA receptor. The following applies: cited from earlier work.

For `CN1CCc2[nH]c3ccc(Br)cc3c2C1` [No. 5, 2-methyl-8-bromo-2,3,4,5-tetrahydro-1H-pyrido[4,3-b]indole], the “ED50 (dose preventing the development of convulsions and the death of 50% of the animals)” value in the data set on NMDA receptor [1] was found to be 29 ± 5 mg/kg.
Regarding `Cl.Nc1c2c(nc3ccccc13)CCCC2` [Tacrine, 9-amino-1,2,3,4-tetrahydroacridine hydrochloride, reference compound], in the data set with NMDA receptor [1], the “ED50 (dose preventing the development of convulsions and the death of 50% of the animals)” value is “not active”.
Regarding `NC(CCCP(=O)(O)O)C(=O)O` (stereo not drawn) [AP-5, 2-amino-5-phosphonovaleric acid], in the data set on NMDA receptor [1], the “ED50 (dose preventing the development of convulsions and the death of 50% of the animals)” value was 190 ± 20 mg/kg. For the same compound, the “side neurotoxic effect (disturbance of coordination of movement, sedative effect)” value in the data set with NMDA receptor [2] (in the doses that produce the anti-NMDA effect) was “side neurotoxic effect”. In the data set with NMDA receptor [2] (literature value), the “ED50, anti-NMDA effect” value was 190 mg/kg.
Take `Cc1ccc2[nH]c3c(c2c1)CN(C)CC3` [No. 3, 2,8-dimethyl-2,3,4,5-tetrahydro-1H-pyrido[4,3-b]indole]: in the data set with NMDA receptor [1] (listed as 3), the “ED50 (dose preventing the development of convulsions and the death of 50% of the animals)” value is recorded as around 40 mg/kg.
Consider `Cc1ccc2[nH]c3c(c2c1)CN(C)CC3` [No. 2, 2,8-dimethyl-2,3,4,5-tetrahydro-1H-pyrido[4,3-b]indole], for which the “ED50 (dose preventing the development of convulsions and the death of 50% of the animals)” value with NMDA receptor [1] (listed as 2) turned out to be 16 ± 4 mg/kg.
As to `CN1CCc2[nH]c3ccccc3c2C1` [No. 1, 2-methyl-2,3,4,5-tetrahydro-1H-pyrido[4,3-b]indole], the “ED50 (dose preventing the development of convulsions and the death of 50% of the animals)” value in the data set on NMDA receptor [1] stood at 30 ± 4 mg/kg.
On the same count and under the same terms, the figure for `CCN1CCc2[nH]c3ccccc3c2C1` [No. 6, 2-ethyl-2,3,4,5-tetrahydro-1H-pyrido[4,3-b]indole] is 45 ± 6 mg/kg.
On the same count and under the same terms, the figure for `c1ccc(CN2CCc3[nH]c4ccccc4c3C2)cc1` [No. 7, 2-benzyl-2,3,4,5-tetrahydro-1H-pyrido[4,3-b]indole] is 43 ± 5 mg/kg.
For the compound `Cc1ccc2c(c1)c1c(n2Cc2ccccc2)CCN(C)C1` [No. 8, 2,8-dimethyl-5-benzyl-2,3,4,5-tetrahydro-1H-pyrido[4,3-b]indole], in the data set with NMDA receptor [1], the “ED50 (dose preventing the development of convulsions and the death of 50% of the animals)” value stood at 45 ± 5 mg/kg.
The same measure, in the same setting: the figure for `Cc1ccc(CCn2c3c(c4ccccc42)CN(C)CC3)cn1` [No. 9, 2-methyl-5-[2-(6-methyl-3-pyridyl)ethyl]-2,3,4,5-tetrahydro-1H-pyrido[4,3-b]indole] is 22 ± 4 mg/kg.
